Counter-ions that a name gives are not always drawn.
Target: β-catenin/BCL9 PPI (Homo sapiens (Human), UniProt P35222)
Test: AlphaScreen competitive inhibition assay, wild-type β-catenin/BCL9 PPI
Type: binding
Settings: for Ki / AlphaScreen Ki relative to compound 2 (higher / worse): wild-type β-catenin/BCL9 PPI; for Ki: AlphaScreen competitive inhibition, mean ± SD (n=3); for AlphaScreen Ki relative to compound 2 (higher / worse): compared with compound 2
Experimental: Cells were cultured in LB medium with 30 μg/mL kanamycin until the OD600 was approximately 0.8, and then protein expression was induced with 400 μM of IPTG at 20° C. overnight. Cells were lysed by sonication. […] Native non-denaturing gel electrophoresis was performed to confirm the homogeneity of the purified proteins. Thermal-shift assay was performed on an iCycler iQ Real Time Detection System (Bio-Rad) to monitor protein stability and detect protein aggregation. Protein unfolding was evaluated through measuring the fluorescence changes of fluorescent dye Sypro Orange when interacting with wild-type or mutant β-catenin proteins. A temperature increment of 1°/min was applied. […] All spectra were recorded at room temperature, and the baseline control containing all of the substances except protein. Sample were prepared at a concentration around 1-5 μM in a buffer of 10 mM potassium phosphate and 100 mM potassium fluoride at pH 7.0 to ensure that the transmission of light through the sample was not restricted. […] Proteins were aliquoted and stored at −80° C.
25. Alphascreen Competitive Inhibition Assays Using Wild-Type and Mutant β-Catenin Proteins

β-catenin/BCL9 PPI, sequence (P35222 138-686): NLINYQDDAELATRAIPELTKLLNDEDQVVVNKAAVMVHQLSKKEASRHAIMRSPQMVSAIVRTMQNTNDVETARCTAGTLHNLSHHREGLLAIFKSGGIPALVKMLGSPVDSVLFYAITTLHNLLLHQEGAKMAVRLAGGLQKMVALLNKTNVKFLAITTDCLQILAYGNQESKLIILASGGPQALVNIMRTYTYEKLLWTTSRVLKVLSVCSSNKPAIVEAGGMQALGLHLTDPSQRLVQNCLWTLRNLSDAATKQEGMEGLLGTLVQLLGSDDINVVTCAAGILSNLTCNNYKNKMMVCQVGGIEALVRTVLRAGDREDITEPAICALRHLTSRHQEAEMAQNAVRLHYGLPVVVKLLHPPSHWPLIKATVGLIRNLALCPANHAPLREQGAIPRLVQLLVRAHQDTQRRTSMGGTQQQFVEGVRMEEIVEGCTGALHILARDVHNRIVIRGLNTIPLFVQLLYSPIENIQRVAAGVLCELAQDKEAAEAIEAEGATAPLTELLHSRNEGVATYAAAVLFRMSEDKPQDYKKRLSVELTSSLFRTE

Ki | AlphaScreen Ki relative to compound 2 (higher / worse) | inhibition of β-catenin/BCL9 PPI at the highest concentration tested (500 μM, AlphaScreen) | Compound
82 ± 12 µM | 4 fold |  | Cl.Cl.O=C(c1cc(F)cc(N2CCNCC2)c1)N1CCN(C(=O)c2cnc(O[C@H]3CCNC3)c(-c3ccc(F)cc3)c2)CC1 [Compound 3, (S)-(4-(3-Fluoro-5-(piperazin-1-yl)benzoyl)piperazin-1-yl)(5-(4-fluorophenyl)-6-(pyrrolidin-3-yloxy)pyridin-3-yl)methanone hydrochloride]
10 ± 10 µM |  |  | CC[C@H]1CN(C(=O)c2cc(F)cc(N3CCNCC3)c2)CCN1C(=O)c1ccc(O[C@H]2CCNC2)c(-c2ccc(F)cc2)c1 [Compound 63, 4-(3-((S)-3-Ethyl-4-(4′-fluoro-6-(((S)-pyrrolidin-1-ium-3-yl)oxy)-[1,1′-biphenyl]-3-carbonyl)piperazine-1-carbonyl)-5-fluorophenyl)piperazin-1-ium chloride]
39 ± 7 µM |  |  | O=C(c1cc(F)cc(N2CCNCC2=O)c1)N1CCN(C(=O)c2ccc(O[C@H]3CCNC3)c(C3CCCCC3)c2)CC1 [Compound 75, (S)-1-(3-(4-(3-Cyclohexyl-4-(pyrrolidin-3-yloxy)benzoyl)piperazine-1-carbonyl)-5-fluorophenyl)piperazin-2-one hydrochloride]
25 ± 1.7 µM |  |  | Cc1cc(C(=O)N2CCN(C(=O)c3ccc(O[C@H]4CCNC4)c(C4CCCCC4)c3)CC2)cc(N2CCNCC2)c1 [Compound 19, (S)-(4-(3-Cyclohexyl-4-(pyrrolidin-3-yloxy)benzoyl)piperazin-1-yl) (3-methyl-5-(piperazin-1-yl)phenyl)methanone hydrochloride]
14 ± 3.6 µM |  |  | O=C(c1cc(F)cc(N2CCNCC2=O)c1)N1CCN(C(=O)c2ccc(O[C@H]3CCNC3)c(C3CCC(C(F)(F)F)CC3)c2)CC1 (stereo partly drawn) [Compound 76, (S)-1-(3-Fluoro-5-(4-(4-(pyrrolidin-3-yloxy)-3-(4-(trifluoromethyl)cyclohexyl)benzoyl)piperazine-1-carbonyl)phenyl)piperazin-2-one hydrochloride]
57 ± 33 µM | approximately 3 fold |  | Cl.Cl.O=C(c1cc(F)cc(N2CCNCC2)c1)N1CCN(C(=O)c2ccc(O[C@H]3CCNC3)c(-c3ccc(F)c(F)c3)c2)CC1 [Compound 9, (S)-(4-(3′,4′-Difluoro-6-(pyrrolidin-3-yloxy)-[1,1′-biphenyl]-3-carbonyl)piperazin-1-yl)(3-fluoro-5-(piperazin-1-yl)phenyl) methanone hydrochloride]
45 µM |  |  | CC(C)[C@H]1CN(C(=O)c2cc(F)cc(N3CCNCC3)c2)CCN1C(=O)c1ccc(O[C@H]2CCNC2)c(-c2ccc(F)cc2)c1 [Compound 64, 4-(3-Fluoro-5-((5)-4-(4′-fluoro-6-(((S)-pyrrolidin-1-ium-3-yl)oxy)-[1,1′-biphenyl]-3-carbonyl)-3-isopropylpiperazine-1-carbonyl)phenyl)piperazin-1-ium chloride]
69 ± 8.7 µM |  |  | O=C(c1cc(N2CCNCC2)cc(C(F)(F)F)c1)N1CCN(C(=O)c2ccc(O[C@H]3CCNC3)c(C3CCCCC3)c2)CC1 [Compound 20, (S)-(4-(3-Cyclohexyl-4-(pyrrolidin-3-yloxy)benzoyl)piperazin-1-yl) (3-(piperazin-1-yl)-5-(trifluoromethyl)phenyl) methanone hydrochloride]
55 ± 2.7 µM |  |  | O=C(c1cc(Br)cc(N2CCNCC2)c1)N1CCN(C(=O)c2ccc(O[C@H]3CCNC3)c(C3CCCCC3)c2)CC1 [Compound 21, (S)-(4-(3-Bromo-5-(piperazin-1-yl)benzoyl)piperazin-1-yl)(3-cyclohexyl-4-(pyrrolidin-3-yloxy)phenyl)methanone hydrochloride]
22 µM |  |  | CC(C)C[C@H]1CN(C(=O)c2cc(F)cc(N3CCNCC3)c2)CCN1C(=O)c1ccc(O[C@H]2CCNC2)c(-c2ccc(F)cc2)c1 [Compound 68, 4-(3-Fluoro-5-((5)-4-(4′-fluoro-6-(((S)-pyrrolidin-1-ium-3-yl)oxy)-[1,1′-biphenyl]-3-carbonyl)-3-isobutylpiperazine-1-carbonyl)phenyl)piperazin-1-ium chloride]
490 ± 150 µM |  |  | Cc1cc(C(=O)N2CCN(C(=O)c3cc(F)cc(N4CCNCC4)c3)CC2)ccc1O[C@H]1CCNC1 [Compound 17, (S)-(4-(3-Fluoro-5-(piperazin-1-yl)benzoyl)piperazin-1-yl)(3-methyl-4-(pyrrolidin-3-yloxy)phenyl) methanone hydrochloride]
67 ± 13 µM |  |  | NCCc1cc(F)cc(C(=O)N2CCN(C(=O)c3ccc(O[C@H]4CCNC4)c(-c4ccc(F)cc4)c3)CC2)c1 [Compound 5, (S)-(4-(3-(2-Aminoethyl)-5-fluorobenzoyl)piperazin-1-yl)(4′-fluoro-6-(pyrrolidin-3-yloxy)-[1,1′-biphenyl]-3-yl)methanone hydrochloride]
> 500 µM |  | no obvious inhibition | Cl.Cl.NCCc1cc(F)cc(C(=O)N2CCN(C(=O)c3cnc(O[C@H]4CCNC4)c(-c4ccc(F)cc4)c3)CC2)c1 [Compound 4, (S)-(4-(3-(2-Aminoethyl)-5-fluorobenzoyl)piperazin-1-yl)(5-(4-fluorophenyl)-6-(pyrrolidin-3-yloxy)pyridin-3-yl)methanone hydrochloride]
48 ± 11 µM |  |  | O=C(c1cc(F)cc(O[C@H]2CCNC2)c1)N1CCN(C(=O)c2ccc(O[C@H]3CCNC3)c(-c3ccc(F)cc3)c2)CC1 [Compound 6, (4-(3-Fluoro-5-(((S)-pyrrolidin-3-yl)oxy)benzoyl)piperazin-1-yl) (4′-fluoro-6-(((S)-pyrrolidin-3-yl)oxy)-[1,1′-biphenyl]-3-yl) methanone hydrochloride]
76 ± 9.9 µM |  |  | O=C(c1cc(Cl)cc(N2CCNCC2)c1)N1CCN(C(=O)c2ccc(O[C@H]3CCNC3)c(C3CCCCC3)c2)CC1 [Compound 18, (S)-(4-(3-Chloro-5-(piperazin-l-yl)benzoyl)piperazin-1-yl)(3-cyclohexyl-4-(pyrrolidin-3-yloxy)phenyl)methanone hydrochloride]
110 ± 50 µM |  |  | C[C@H]1CN(C(=O)c2cc(F)cc(N3CCNCC3)c2)CCN1C(=O)c1ccc(O[C@H]2CCNC2)c(-c2ccc(F)cc2)c1 [Compound 62, 4-(3-Fluoro-5-((S)-4-(4′-fluoro-6-(((S)-pyrrolidin-1-ium-3-yl)oxy)-[1,1′-biphenyl]-3-carbonyl)-3-methylpiperazine-1-carbonyl)phenyl)piperazin-1-ium chloride]
130 ± 6.9 µM |  |  | NCCOc1ccc(C(N)=O)cc1-c1ccc(F)cc1 [Compound 1, 2-((5-carbamoyl-4′-fluoro-[1,1′-biphenyl]-2-yl)oxy)ethan-1-aminium chloride]
35 ± 9.6 µM |  |  | O=C(c1cc(F)cc(O[C@@H]2CCNC2)c1)N1CCN(C(=O)c2ccc(O[C@H]3CCNC3)c(-c3ccc(F)cc3)c2)CC1 [Compound 7, (4-(3-Fluoro-5-(((R)-pyrrolidin-3-yl)oxy)benzoyl)piperazin-1-yl) (4′-fluoro-6-(((S)-pyrrolidin-3-yl)oxy)-[1,1′-biphenyl]-3-yl) methanone hydrochloride]

Compound | Ki | AlphaScreen Ki relative to compound 2 (higher / worse) | inhibition of β-catenin/BCL9 PPI at the highest concentration tested (500 μM, AlphaScreen)
CC1(C)CCC(c2cc(C(=O)N3CCN(C(=O)c4cc(F)cc(N5CCNCC5)c4)CC3)ccc2O[C@H]2CCNC2)CC1 [Compound 15, (S)-(4-(3-(4,4-Dimethylcyclohexyl)-4-(pyrrolidin-3-yloxy)benzoyl)piperazin-1-yl) (3-fluoro-5-(piperazin-1-yl)phenyl) methanone hydrochloride] | 45 ± 6.7 µM |  | 
O=C(c1cc(F)cc(N2CCNCC2)c1)N1CCN(C(=O)c2ccc(O[C@H]3CCNC3)c(C3CCCC3)c2)CC1 [Compound 11, (S)-(4-(3-Cyclopentyl-4-(pyrrolidin-3-yloxy)benzoyl)piperazin-1-yl)(3-fluoro-5-(piperazin-1-yl)phenyl)methanone hydrochloride] | 37 ± 8 µM |  | 
O=C(c1cc(F)cc(C2CCNCC2)c1)N1CCN(C(=O)c2ccc(O[C@H]3CCNC3)c(-c3ccc(F)cc3)c2)CC1 [Compound 8, (S)-(4-(3-Fluoro-5-(piperidin-4-yl)benzoyl)piperazin-1-yl)(4′-fluoro-6-(pyrrolidin-3-yloxy)-[1,1′-biphenyl]-3-yl)methanone hydrochloride] | 20 ± 2.3 µM |  | 
O=C(c1cc(F)cc(N2CCNCC2)c1)N1CCN(C(=O)c2ccc(O[C@H]3CCNC3)c(C3CCC(C(F)(F)F)CC3)c2)CC1 (stereo partly drawn) [Compound 13, (S)-(4-(3-Fluoro-5-(piperazin-1-yl)benzoyl)piperazin-1-yl)(4-(pyrrolidin-3-yloxy)-3-(4-(trifluoromethyl)cyclohexyl)phenyl)methanone hydrochloride] | 170 ± 7.5 µM |  | 
O=C(c1cc(F)cc(N2CCNCC2)c1)N1CCN(C(=O)c2ccc(O[C@H]3CCNC3)c(C3CCC(F)(F)CC3)c2)CC1 [Compound 16, (S)-(4-(3-(4,4-Difluorocyclohexyl)-4-(pyrrolidin-3-yloxy)benzoyl)piperazin-1-yl)(3-fluoro-5-(piperazin-1-yl)phenyl)methanone hydrochloride] | 53 ± 22 µM |  | 

— US11542254B2, “Methods and composition of 4-substituted benzoylpiperazine-1-substituted carbonyls as beta-catenin/B-cell lymphoma 9 inhibitors” (University of Utah Research Foundation, priority 2016, dated 2023)
